This note sets out measurements from ChEMBL document CHEMBL1201862, “PubChem BioAssay data set” (2004).

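Five compound concentrations were applied to cells in 96-well plates for 48 hours; endpoints were derived by simple linear interpolation of the resulting dose-response curve. GI50 marks 50% less growth.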 Active and inactive are the calls of the source. Rule as the data show it: active = GI50 up to about 1.1 µM and inactive = higher.

Common to all, as to test: NCI tumour cell line growth inhibition, 48 h
In assay [1] the test system is UACC-257.
The test system of assay [2] is HOP-92.
For assay [3], the system named is MDA-MB-435.
Assay [4] deals with SNB-75.
In assay [5] the test system is MDA-MB-231.
The subject of assay [6] is NCI-H522.
For assay [7], the system named is PC-3.
For assay [8], the system named is T47D.
Assay [9] relates to SF-295.
The test system of assay [10] is OVCAR-8.
The test system of assay [11] is BT-549.
The subject of assay [12] is KM12.
The test system of assay [13] is NCI-H460.
The subject of assay [14] is OVCAR-4.
In assay [15] the test system is K562.
Assay [16] deals with CAKI-1.
In assay [17] the test system is M14.
Assay [18] has as its system RPMI-8226.
Assay [19] relates to 786-0.

As to `Oc1ccccc1CNCc1ccccc1O`, the GI50 in [1] is > 100 µM (inactive); in assay [2] it was 99.5 µM (inactive); in assay [3] it was 54.3 µM (inactive); in assay [4], > 100 µM (inactive); in assay [5], > 100 µM (inactive); in assay [6], > 100 µM (inactive). The GI50 in [7], in assay [8], in assay [9], in assay [10], in assay [11] and in assay [12] was > 100 µM (inactive) throughout. The GI50 is 78.5 µM (inactive) in [13]; > 100 µM (inactive) in assay [14]; 39.6 µM (inactive) in assay [15]; > 100 µM (inactive) in assay [16]; > 100 µM (inactive) in assay [17]; 32.7 µM (inactive) in assay [18]. Moreover, the GI50 in assay [19] is > 100 µM (inactive).

Turning to `Cn1c(=O)c2c(nc3sc4ncccc4c(=O)n32)n(C)c1=O`, the GI50 in assay [1], in [2], in assay [3], in [4], in assay [5] and in assay [7] was > 100 µM (inactive) throughout. Further, the GI50 in assay [8], in assay [9], in assay [10], in [11], in [12] and in assay [13] was > 100 µM (inactive) each time. For the same molecule, the GI50 in [14], in [16], in assay [17], in assay [18] and in assay [19] was > 100 µM (inactive) throughout.

Consider `Cc1ccc(S(=O)(=O)ON2C(=O)c3c(N)c(C#N)c(-c4ccccc4)c(-c4ccccc4)c3C2=O)cc1`, for which the GI50 was 18.6 µM (inactive) in [1]; 21.6 µM (inactive) in [2]; 9.77 µM (inactive) in assay [3]; 36.4 µM (inactive) in assay [4]; 19.3 µM (inactive) in assay [5]; 15.6 µM (inactive) in assay [6]. For the same molecule, the GI50 was 15.7 µM (inactive) in assay [7]; 18.2 µM (inactive) in assay [8]; 20 µM (inactive) in assay [9]; 17.6 µM (inactive) in assay [10]; 13.1 µM (inactive) in assay [11]; 51.1 µM (inactive) in assay [12]. In addition, the GI50 in assay [13] is 35.6 µM (inactive); in assay [14], 21.9 µM (inactive); in [15] it was 6.41 µM (inactive); in assay [16], 16 µM (inactive); in [17], 13.6 µM (inactive); in [18], 11.1 µM (inactive). Also, the GI50 in assay [19] was 15.8 µM (inactive).

As for `Nc1c(S(=O)(=O)O)cc(S(=O)(=O)O)c2ccc(/N=N/c3ccccc3)c(O)c12`, the GI50 in assay [1], in assay [2], in [3], in assay [4], in assay [5] and in assay [6] was > 100 µM (inactive) each time. The GI50 in assay [7], in assay [8], in [9], in assay [10], in [11] and in assay [12] was > 100 µM (inactive) in each case. The GI50 in assay [13] is > 100 µM (inactive); in assay [14] it was > 100 µM (inactive); in assay [15] it was 43.3 µM (inactive); in assay [16], > 100 µM (inactive); in assay [17], > 100 µM (inactive); in [18], > 100 µM (inactive). In addition, in assay [19], the GI50 was > 100 µM (inactive).

Consider `O=C(NC1CCN(Cc2ccccc2)CC1)c1ccc(I)cc1`, for which the GI50 in [1] was 45.8 µM (inactive); in [2], 34 µM (inactive); in assay [3], 33.3 µM (inactive); in assay [5] it was 19.4 µM (inactive); in [6] it was 63.5 µM (inactive); in assay [7], 62.7 µM (inactive). For the same molecule, the GI50 was > 100 µM (inactive) in [8]; 29.5 µM (inactive) in assay [9]; > 100 µM (inactive) in [10]; 87.5 µM (inactive) in assay [11]; > 100 µM (inactive) in assay [12]; > 100 µM (inactive) in assay [13]. For the same molecule, the GI50 in [14] is > 100 µM (inactive); in assay [15], 42.4 µM (inactive); in [16], 70.1 µM (inactive); in assay [17] it was 39 µM (inactive); in assay [18], 63.5 µM (inactive); in assay [19] it was 97.5 µM (inactive).

Regarding `CC(C)[Si]1(C(C)C)OCC2OC(n3ccc(=O)[nH]c3=O)C([Se]c3ccccc3)C2O[Si](C(C)C)(C(C)C)O1` (stereo not drawn), the GI50 in assay [1] was 4.31 µM (inactive); in assay [2], 3.5 µM (inactive); in assay [3], 5.42 µM (inactive); in assay [4], 0.33 µM (active); in [5], 2.83 µM (inactive); in assay [6] it was 2.1 µM (inactive). The GI50 is 3.35 µM (inactive) in [7]; 6.71 µM (inactive) in assay [8]; 5.9 µM (inactive) in assay [9]; 3.4 µM (inactive) in assay [10]; 11.6 µM (inactive) in [11]; 2.16 µM (inactive) in [12]. Also, the GI50 was 1.87 µM (inactive) in assay [13]; 2.88 µM (inactive) in assay [14]; 11.5 µM (inactive) in assay [16]; 8.24 µM (inactive) in assay [17]; 2.95 µM (inactive) in assay [18]; 3.83 µM (inactive) in [19].

For `CC1(C)[C@H]2Cc3cc(-c4cc5c(cn4)[C@@H]4C[C@H]([C@@H]5[C@@H]5c6cc(-c7cc8c(cn7)[C@@H]7C[C@H](C8)C7(C)C)ncc6[C@@H]6C[C@H]5C6(C)C)C4(C)C)ncc3[C@@H]1C2`, the GI50 in [1], in [2], in assay [3], in [4], in assay [5] and in [6] was > 100 µM (inactive) throughout. Besides, the GI50 in [7], in [8], in assay [9], in assay [10], in assay [11] and in [12] was > 100 µM (inactive) in each case. Further, the GI50 in [13], in assay [15], in assay [16], in [17], in assay [18] and in assay [19] was > 100 µM (inactive) throughout.

`Cn1c(-c2ccccc2)cc(-c2ccsc2)c1-c1ccsc1`: the GI50 in [1], in assay [2], in assay [3], in assay [4], in [5] and in assay [7] was > 100 µM (inactive) each time. For the same molecule, the GI50 in assay [8], in [9], in assay [10], in assay [11], in assay [12] and in assay [13] was > 100 µM (inactive) each time. Moreover, the GI50 in assay [14], in assay [15], in [16], in assay [17], in assay [18] and in assay [19] was > 100 µM (inactive) throughout.

Take `CN(C)c1ccc(/C=C2\N=C(c3ccccc3)N(/N=C3\C(=O)Nc4ccccc43)C2=O)cc1`: the GI50 is 85.3 µM (inactive) in assay [1]; 16.9 µM (inactive) in [2]; 20.4 µM (inactive) in assay [3]; 57.9 µM (inactive) in [4]; 92.5 µM (inactive) in [5]; 23.4 µM (inactive) in assay [6]. The GI50 in assay [7] was 56.5 µM (inactive); in [8], 41.6 µM (inactive); in [9], 69.8 µM (inactive); in assay [10], 55 µM (inactive); in [11], > 100 µM (inactive); in [12] it was 50.9 µM (inactive). The GI50 in assay [13] was 50.5 µM (inactive); in assay [14], 32.4 µM (inactive); in assay [15], 32 µM (inactive); in [16] it was 35.9 µM (inactive); in assay [17] it was 91.4 µM (inactive); in assay [19] it was 52.4 µM (inactive).

For the molecule `NC1=Nc2ncccc2C(=O)NN1`, the GI50 in assay [1], in assay [2], in [3], in assay [4], in assay [5] and in [7] was > 10 µM (inactive) throughout. For the same molecule, the GI50 in [8], in assay [9], in assay [10], in assay [11], in [12] and in assay [13] was > 10 µM (inactive) throughout. For the same molecule, the GI50 in assay [15], in [17], in assay [18] and in assay [19] was > 10 µM (inactive) throughout.

Take `CCOC(=O)CCC(NC(=O)c1ccc(Nc2nc3ccccc3n3cccc23)cc1)C(=O)OCC` (stereo not drawn): the GI50 was 26.2 µM (inactive) in [1]; 32.1 µM (inactive) in assay [2]; 30.2 µM (inactive) in [3]; 26.7 µM (inactive) in [4]; 21.5 µM (inactive) in assay [5]; 22.9 µM (inactive) in assay [6]. The GI50 in assay [7] was 16.4 µM (inactive); in assay [8] it was < 0.01 µM (active); in [9], 25.2 µM (inactive); in assay [10], 19.6 µM (inactive); in assay [11], 23.3 µM (inactive); in assay [12], 31.1 µM (inactive). In addition, the GI50 in assay [13] is 28.7 µM (inactive); in [15], 38.5 µM (inactive); in assay [16], 33.6 µM (inactive); in [17], 51.6 µM (inactive); in assay [18] it was 23.1 µM (inactive); in [19], 17 µM (inactive).
